Where “and” joins values, the source holds several entries; their conditions need not be identical. Equal values may be shown once.
Legend:
CCRF-CEM [1] = assay: MTT or WST-1 assay at 72 hr (24 hr drug exposure, wash, 48 hr); assay type: cell-based
Procedure: (§1) Exposition of 24hr to drug, washed, and incubated for another 48hr (total of 72hr assay)

CEM/dCK- [2] = assay: as above; assay type: cell-based; settings: for Resistance Factor*: single experiment
Procedure: as §1

SF-268 [3] = assay: MTT assay at 72 hr (24 hr drug exposure, wash, 48 hr); assay type: cell-based
Procedure: as §1

H-460 [4] = assay: as above; assay type: cell-based
Procedure: as §1

MCF-7 [5] = assay: as above; assay type: cell-based; settings: Homo sapiens
Procedure: as §1

SF-268 [6] = assay: 3H-TdR incorporation at 72 hr (24 hr drug exposure, wash, 48 hr); assay type: cell-based, Human; settings: Homo sapiens, SF-268, read-out: IC50 in μM (3H-TdR incorporation at 72 hr) SF-268 24 h, SF-268 Human Central Nervous System Tumor; 24 h drug exposure, 72 hr assay
Procedure: (§2) Exposition of 24 hr to drug, wash, incubated for another 48 hr (total of 72 hr assay)
(§3) (3H-Thymidine Incorporation Assay)

H-460 [7] = assay: as above; assay type: cell-based, Human; settings: Homo sapiens, NCI-H460, read-out: IC50 in μM (3H-TdR incorporation at 72 hr) H-460 24 h, H-460 Human Lung Carcinoma, 72 hr assay
Procedure: as §2, §3

MCF-7 [8] = assay: as above; assay type: cell-based, Human; settings: Homo sapiens, MCF7, read-out: IC50 in μM (3H-TdR incorporation at 72 hr) MCF-7 24 h, MCF-7 Human Breast Carcinoma, 72 hr assay
Procedure: as §2, §3

CEM/dCK- [9] = assay: as above; assay type: cell-based; settings: Homo sapiens, CCRF-CEM, read-out: IC50 in μM (3H-TdR incorporation at 72 hr) CEM/dCK- 24 h, CCRF-CEM deoxycytidine kinase-deficient; 24 h drug exposure, 72 hr assay
Procedure: as §2, §3

H-460 [10] = assay: 3H-TdR (3H-thymidine) incorporation assay at 72 hr; assay type: cell-based, Human; settings: Homo sapiens
SF-268 [11] = assay: 3H-TdR (3H-thymidine) incorporation assay at 72 hr; assay type: cell-based, Human
CCRF-CEM [12] = assay: 3H-TdR (3H-thymidine) incorporation assay at 72 hr; assay type: cell-based
Procedure: (§4) Table of IC50 Values (μM) for Controls
as §2, §3

CEM/dCK- [13] = assay: 3H-TdR (3H-thymidine) incorporation assay at 72 hr; assay type: cell-based
Procedure: as §4, §2, §3

MCF-7 [14] = assay: 3H-TdR (3H-thymidine) incorporation assay at 72 hr; assay type: cell-based, Human; settings: Homo sapiens
[15] = Homo sapiens, CCRF-CEM, read-out: IC50 CCRF-CEM 24 h, MMT or WST-1 at 72 hr, 24 h exposure, single experiment
[16] = read-out: IC50 CEM/dCK- 24 h, MMT or WST-1 at 72 hr, 24 h exposure, single experiment
[17] = Homo sapiens, SF-268, read-out: IC50 SF-268 24 h, MTT at 72 hr, 24 h exposure, single experiment
[18] = Homo sapiens, NCI-H460, read-out: IC50 H-460 24 h, MTT at 72 hr, 24 h exposure, single experiment
[19] = MCF7, read-out: IC50 MCF-7 24 h, MTT at 72 hr, 24 h exposure, single experiment

**Q.** What does the source list for `CC(C)C(C(=O)OC[C@H]1OC[C@@H](n2ccc(N)nc2=O)O1)c1ccccc1` (mixture of isomers) [Compound 262, 3-METHYL-2-PHENYL- BUTYRIC ACID 4-(4- AMINO-2-OXO-2H- PYRIMIDIN-1-YL)- [1,3]DIOXOLAN-2- YLMETHYL ESTER]?
**A.** IC50 (CCRF-CEM [1]; [15]): 880 nM; Resistance Factor* (CEM/dCK- [2]; CEM/dCK- versus CCRF-CEM): >114; IC50 (CEM/dCK- [2]; [16]): > 100000 nM; IC50 (SF-268 [3]; [17]): > 100000 nM; IC50 (H-460 [4]; [18]): 900 nM; IC50 (MCF-7 [5]; [19]): 16000 nM

**Q.** Which IC50 (CCRF-CEM [1]; [15]) does the source give for `CCCCC(C)(C)C(=O)OC[C@H]1OC[C@@H](n2ccc(N)nc2=O)O1.Cl` (stereo in doubt) [Compound 107, 2,2-DIMETHYLHEXANOIC ACID 4-(4-AMINO-2-OXO- 2H-PYRIMIDIN-1-YL)-1,3- DIOXOLAN-2-YLMETHYL ESTER HYDROCHLORIDE] here?
**A.** Its IC50 is 24 nM.

**Q.** And the “Resistance Factor*” value (CEM/dCK- [2]; CEM/dCK- versus CCRF-CEM)?
**A.** Its value is 2.042.

**Q.** What about the IC50 (CEM/dCK- [2]; [16]) of the same compound?
**A.** The IC50 was 49000 nM.

**Q.** What about the IC50 (SF-268 [3]; [17]) of the same compound?
**A.** Its IC50 is 3400 nM.

**Q.** And the IC50 (H-460 [4]; [18])?
**A.** Its IC50 is 270 nM.

**Q.** And the IC50 (MCF-7 [5]; [19])?
**A.** The IC50 was 250 nM.

**Q.** For `CCCCCCCC/C=C/CCCCCCCC(=O)Nc1ccn([C@@H]2CO[C@H](CO)O2)c(=O)n1` (stereo in doubt) [Compound 216, Octadec-9-enoic acid [1-(2-hydroxymethyl-[1,3]dioxolan-4-yl)-2-oxo-1,2-dihydro-pyrimidin-4-yl]-amide], which IC50 (SF-268 [6]) is on record?
**A.** Its IC50 is 0.018 µM.

**Q.** And the IC50 (H-460 [7])?
**A.** The IC50 was 0.00088 µM.

**Q.** And the IC50 (MCF-7 [8])?
**A.** Its IC50 is at most 0.0001 µM.

**Q.** What about the IC50 (CEM/dCK- [9]) of the same compound?
**A.** Its IC50 is 14 µM.

**Q.** And the IC50 (CCRF-CEM [1]; [15])?
**A.** The IC50 was 340 nM.

**Q.** And the “Resistance Factor*” value (CEM/dCK- [2]; CEM/dCK- versus CCRF-CEM)?
**A.** The value was 91.

**Q.** What about the IC50 (CEM/dCK- [2]; [16]) of the same compound?
**A.** Its IC50 is 31000 nM.

**Q.** And the IC50 (SF-268 [3]; [17])?
**A.** Its IC50 is 400 nM.

**Q.** And the IC50 (H-460 [4]; [18])?
**A.** The IC50 was 64 nM.

**Q.** What about the IC50 (MCF-7 [5]; [19]) of the same compound?
**A.** The IC50 was 9.4 nM.

**Q.** For `Nc1ccn([C@@H]2CO[C@H](CO)O2)c(=O)n1` [BCH-4556], which IC50 (H-460 [10]; NCI-H460, 24 h, read-out: IC50 H-460 24 h, Average, Average ± spread of the repeat determinations, 24 h exposure) is on record?
**A.** Its IC50 is 120 nM.

**Q.** What about the IC50 (H-460 [10]; NCI-H460, read-out: IC50 H-460 (72 h), 72 h exposure, 3H-TdR incorporation at 72 hr) of the same compound?
**A.** Its IC50 is 40 nM.

**Q.** What about the IC50 (SF-268 [11]; Homo sapiens, SF-268, 24 h, read-out: IC50 SF-268 24 h, Average, Average ± spread of the repeat determinations, 24 h exposure) of the same compound?
**A.** The IC50 was 440 nM.

**Q.** And the IC50 (SF-268 [11]; Homo sapiens, SF-268, read-out: IC50 SF-268 (72 h), 72 h exposure, 3H-TdR incorporation at 72 hr)?
**A.** The IC50 was 96 nM.

**Q.** And the IC50 (SF-268 [11]; read-out: IC50 SF-268 24 h, 24 h drug exposure, wash, another 48 hr, 3H-TdR incorporation at 72 hr)?
**A.** The IC50 was 330 nM and 660 nM.

**Q.** And the IC50 (CCRF-CEM [12]; Homo sapiens, CCRF-CEM, 24 h, read-out: IC50 CCRF-CEM 24 h, Average, Average ± spread of the repeat determinations, 24 h exposure)?
**A.** Its IC50 is 78 nM.

**Q.** And the IC50 (CCRF-CEM [12]; read-out: IC50 CCRF-CEM 24 h, 24 h drug exposure, wash, another 48 hr, 3H-TdR incorporation at 72 hr)?
**A.** Its IC50 is 100 nM.

**Q.** What about the IC50 (CEM/dCK- [13]; 24 h, read-out: IC50 CEM/dCK- 24 h, Average, Average ± spread of the repeat determinations, 24 h exposure) of the same compound?
**A.** The IC50 was over 100000 nM.

**Q.** What about the “Factor* (Resistance Factor), Average” value (CEM/dCK- [13]; Average ± spread of the ratios dCK- on wild-type CCRF-CEM) of the same compound?
**A.** Its value is 1792 ± 1584.

**Q.** And the IC50 (CEM/dCK- [13]; Homo sapiens, CCRF-CEM, read-out: IC50 CEM/dCK- 24 h, 24 h drug exposure, wash, another 48 hr, deoxycytidine kinase-deficient CCRF-CEM)?
**A.** Its IC50 is over 100000 nM.

**Q.** And the IC50 (CEM/dCK- [13]; read-out: IC50 CEM/dCK- 24 h, 24 h drug exposure, wash, another 48 hr, deoxycytidine kinase-deficient CCRF-CEM)?
**A.** Its IC50 is 56000 nM.

**Q.** What about the IC50 (MCF-7 [14]; MCF7, 24 h, read-out: IC50 MCF-7 24 h, Average, Average ± spread of the repeat determinations, 24 h exposure) of the same compound?
**A.** The IC50 was 180 nM.

**Q.** What about the IC50 (MCF-7 [14]; MCF7, read-out: IC50 MCF-7 (72 h), 72 h exposure, 3H-TdR incorporation at 72 hr) of the same compound?
**A.** Its IC50 is 66 nM.

**Q.** And the IC50 (CCRF-CEM [1]; Homo sapiens, CCRF-CEM, read-out: IC50 CCRF-CEM 24 h, Average, MMT or WST-1 at 72 hr, Average of the experiments)?
**A.** The IC50 was 380 ± 280 nM.

**Q.** What about the IC50 (CCRF-CEM [1]; read-out: IC50 CCRF-CEM 24 h, MMT or WST-1 at 72 hr, 24 h exposure, single experiment) of the same compound?
**A.** Its IC50 is 210 nM and 140 nM.

**Q.** And the “Resistance Factor*, Average” value (CEM/dCK- [2]; CEM/dCK- versus CCRF-CEM, Average of the experiments)?
**A.** The value was 349 ± 283.

**Q.** What about the IC50 (CEM/dCK- [2]; read-out: IC50 CEM/dCK- 24 h, Average, MMT or WST-1 at 72 hr, Average of the experiments) of the same compound?
**A.** Its IC50 is over 100000 nM.

**Q.** What about the IC50 (SF-268 [3]; Homo sapiens, SF-268, read-out: IC50 SF-268 24 h, Average, MTT at 72 hr, Average of the experiments) of the same compound?
**A.** The IC50 was 29000 ± 23000 nM.

**Q.** And the IC50 (SF-268 [3]; read-out: IC50 SF-268 24 h, MTT at 72 hr, 24 h exposure, single experiment)?
**A.** Its IC50 is 16000 nM.

**Q.** What about the IC50 (H-460 [4]; Homo sapiens, NCI-H460, read-out: IC50 H-460 24 h, Average, MTT at 72 hr, Average of the experiments) of the same compound?
**A.** Its IC50 is 1600 ± 1600 nM.

**Q.** What about the IC50 (H-460 [4]; read-out: IC50 H-460 24 h, MTT at 72 hr, 24 h exposure, single experiment) of the same compound?
**A.** Its IC50 is 780 nM.

**Q.** What about the IC50 (MCF-7 [5]; MCF7, read-out: IC50 MCF-7 24 h, Average, MTT at 72 hr, Average of the experiments) of the same compound?
**A.** Its IC50 is 2000 ± 2400 nM.

From patent US20030013660A1, “Dioxolane analogs for improved inter-cellular delivery” (Shire BioChem Inc., priority 2000, published 2003)
